How the values were obtained:
Format in all cases: in vivo
[1] = tested on: ragweed (common ragweed, Ambrosia elatior); experiment: Test A preemergence; settings: Ambrosia artemisiifolia, pre-emergence, 240 h, Preemergence
Summary of the method: (§1)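 Visual injury scores from 0, no effect, to 100, complete control, were assigned versus untreated controls roughly 10 d after treatment in the greenhouse. Test chemicals, formulated with surfactant in a non-phytotoxic solvent, were applied to planted seeds as a preemergence soil spray or postemergence to one- to two-leaf plants 2 to 10 cm tall, in loam–sand soil.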

[2] = tested on: ryegrass, Italian (Italian ryegrass, Lolium multiflorum); experiment: Test A preemergence; settings: Lolium multiflorum, pre-emergence, 240 h, Preemergence
Summary of the method: as §1

Kochia (Kochia scoparia) [3] = experiment: Test A preemergence; settings: Bassia scoparia, pre-emergence, 240 h, Preemergence
Summary of the method: as §1

[4] = tested on: giant foxtail (Setaria faberii); experiment: Test A preemergence; settings: Setaria faberi, pre-emergence, 240 h, Preemergence
Summary of the method: as §1

[5] = tested on: barnyardgrass (Echinochloa crus-galli); experiment: Test A preemergence; settings: Echinochloa crus-galli, pre-emergence, 240 h, Preemergence
Summary of the method: as §1

[6] = tested on: pigweed (Amaranthus retroflexus); experiment: Test A preemergence; settings: Amaranthus retroflexus, pre-emergence, 240 h, Preemergence
[7] = tested on: ducksalad (Heteranthera limosa); experiment: Test B flooded paddy test; settings: Heteranthera limosa, Flood, 250 g ai/ha; scale of 0 to 100 where 0 is no effect and 100 is complete control; read-out: Ducksalad plant response rating
Summary of the method: (§2)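 Response scored visually against untreated controls, 0 = no effect and 100 = complete control, 13–15 d after treatment in the greenhouse. Compounds added to paddy water held 3 cm above soil surface. Treatment given at 2-leaf stage.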

[8] = tested on: barnyardgrass (Echinochloa crus-galli); experiment: Test B flooded paddy test; settings: Echinochloa crus-galli, Flood, 250 g ai/ha; scale of 0 to 100 where 0 is no effect and 100 is complete control; read-out: Barnyardgrass plant response rating
Summary of the method: as §2

rice (Oryra sativa) = experiment: Test B flooded paddy test; settings: Oryza sativa, Flood, 250 g ai/ha; scale of 0 to 100 where 0 is no effect and 100 is complete control; read-out: Rice plant response rating
Summary of the method: as §2

[9] = tested on: sedge, umbrella (small-flower umbrella sedge, Cyperus difformis); experiment: Test B flooded paddy test; settings: Cyperus difformis, 250 g ai/ha, Flood; 0 to 100 scale where 0 is no effect and 100 is complete control; read-out: Sedge, Umbrella plant response rating
Summary of the method: as §2

[10] = tested on: wheat (Triticum aestivum); experiment: Test A postemergence; settings: Triticum aestivum, post-emergence, 240 h, Postemergence, read-out: Plant response rating, Wheat
Summary of the method: as §1

corn (Zea mays) = experiment: Test A postemergence; settings: Zea mays, post-emergence, 240 h, Postemergence
Summary of the method: as §1

[11] = tested on: blackgrass (Alopecurus myosuroides); experiment: Test A postemergence; settings: Alopecurus myosuroides, post-emergence, 240 h, Postemergence, read-out: Plant response rating, Blackgrass
Summary of the method: as §1

[12] = tested on: ragweed (common ragweed, Ambrosia elatior); experiment: Test A postemergence; settings: Ambrosia artemisiifolia, post-emergence, 240 h, Postemergence, read-out: Plant response rating, Ragweed
Summary of the method: as §1

[13] = tested on: Galium (catchweed bedstraw, Galium aparine); experiment: Test A postemergence; settings: Galium, post-emergence, 240 h, Postemergence, read-out: Plant response rating, Galium
Summary of the method: as §1

[14] = tested on: ryegrass, Italian (Italian ryegrass, Lolium multiflorum); experiment: Test A postemergence; settings: Lolium multiflorum, post-emergence, 240 h, Postemergence, read-out: Plant response rating, Ryegrass, Italian
Summary of the method: as §1

Kochia (Kochia scoparia) [15] = experiment: Test A postemergence; settings: Bassia scoparia, post-emergence, 240 h, Postemergence, read-out: Plant response rating, Kochia
Summary of the method: as §1

[16] = tested on: giant foxtail (Setaria faberii); experiment: Test A postemergence; settings: Setaria faberi, post-emergence, 240 h, Postemergence, read-out: Plant response rating, Foxtail, Giant
Summary of the method: as §1

[17] = tested on: barnyardgrass (Echinochloa crus-galli); experiment: Test A postemergence; settings: Echinochloa crus-galli, post-emergence, 240 h, Postemergence, read-out: Plant response rating, Barnyardgrass
Summary of the method: as §1

[18] = tested on: pigweed (Amaranthus retroflexus); experiment: Test A postemergence; settings: Amaranthus retroflexus, post-emergence, 240 h, Postemergence, read-out: Plant response rating, Pigweed
Summary of the method: as §1

[19] = 125 g ai/ha, visual injury after approximately 10 d, 0 to 100 scale where 0 is no effect and 100 is complete control
[20] = 31 g ai/ha, visual injury after approx. 10 d, 0 to 100 scale, 0 no effect, 100 complete control

O=C(Nc1cccc(F)c1F)[C@H]1C(=O)N(OCc2ccccc2)CC[C@@H]1c1cccc(Cl)c1 [Compound 997]
0%: pest or weed control at 125 g/ha ([1]; 125 g ai/ha, visual injury rating after approximately 10 d, read-out: Ragweed plant response rating (0 to 100 scale, 0 is no effect, 100 is complete control)) | pest or weed control at 31 g/ha ([1]; 31 g ai/ha, 0 to 100 scale (0 no effect, 100 complete control), read-out: Plant response rating, Ragweed) | pest or weed control at 125 g/ha ([2]; 125 g ai/ha, visual injury rating after approximately 10 d, read-out: Ryegrass, Italian plant response rating (0 to 100 scale, 0 is no effect, 100 is complete control)) | pest or weed control at 31 g/ha ([2]; 31 g ai/ha, 0 to 100 scale (0 no effect, 100 complete control), read-out: Plant response rating, Ryegrass, Italian) | pest or weed control at 125 g/ha (Kochia (Kochia scoparia) [3]; 125 g ai/ha, visual injury rating after approximately 10 d, read-out: Kochia plant response rating (0 to 100 scale, 0 is no effect, 100 is complete control)) | pest or weed control at 31 g/ha (Kochia (Kochia scoparia) [3]; 31 g ai/ha, 0 to 100 scale (0 no effect, 100 complete control), read-out: Plant response rating, Kochia) | pest or weed control at 125 g/ha ([4]; 125 g ai/ha, visual injury rating after approximately 10 d, read-out: Foxtail, Giant plant response rating (0 to 100 scale, 0 is no effect, 100 is complete control)) | pest or weed control at 31 g/ha ([4]; 31 g ai/ha, 0 to 100 scale (0 no effect, 100 complete control), read-out: Plant response rating, Foxtail, Giant) | pest or weed control at 125 g/ha ([5]; 125 g ai/ha, visual injury rating after approximately 10 d, read-out: Barnyardgrass plant response rating (0 to 100 scale, 0 is no effect, 100 is complete control)) | pest or weed control at 31 g/ha ([5]; 31 g ai/ha, 0 to 100 scale (0 no effect, 100 complete control), read-out: Plant response rating, Barnyardgrass) | pest or weed control at 125 g/ha ([6]; 125 g ai/ha, visual injury rating after approximately 10 d, read-out: Pigweed plant response rating (0 to 100 scale, 0 is no effect, 100 is complete control)) | pest or weed control at 31 g/ha ([6]; 31 g ai/ha, 0 to 100 scale (0 no effect, 100 complete control), read-out: Plant response rating, Pigweed) | pest or weed control at 250 g/ha [7] | pest or weed control at 250 g/ha [8] | pest or weed control at 250 g/ha (rice (Oryra sativa)) | pest or weed control at 250 g/ha [9] | plant injury at 125 g/ha [10, 19] | plant injury at 31 g/ha [10, 20] | Corn plant response rating (crop injury, 0 = no effect, 100 = complete kill) at 125 g/ha (corn (Zea mays); [19]) | Corn plant response rating (crop injury, 0 = no effect, 100 = complete kill) at 31 g/ha (corn (Zea mays); [20]) | pest or weed control at 125 g/ha [11, 19] | pest or weed control at 31 g/ha [11, 20] | pest or weed control at 125 g/ha [12, 19] | pest or weed control at 31 g/ha [12, 20] | pest or weed control at 125 g/ha [13, 19] | pest or weed control at 31 g/ha [13, 20] | pest or weed control at 125 g/ha [14, 19] | pest or weed control at 31 g/ha [14, 20] | pest or weed control at 125 g/ha (Kochia (Kochia scoparia) [15]; [19]) | pest or weed control at 31 g/ha (Kochia (Kochia scoparia) [15]; [20]) | pest or weed control at 125 g/ha [16, 19] | pest or weed control at 31 g/ha [16, 20] | pest or weed control at 125 g/ha [17, 19] | pest or weed control at 31 g/ha [17, 20] | pest or weed control at 125 g/ha [18, 19] | pest or weed control at 31 g/ha [18, 20]

Reference: patent publication US12077503B2, “Substituted cyclic amides and their use as herbicides” (FMC CORPORATION, priority 2015, dated 2024)
